These results are taken from PubChem BioAssay AID1259407 (Chemical Carcinogenesis Research Information System (CCRIS), 2018).

This series has as its system CCRIS mutagenicity, Ames/micronucleus/aberration tests. The experiment in a line: CCRIS mutagenicity studies.
[1] abbreviates: Test System: AMES SALMONELLA TYPHIMURIUM, Strain/Indicator: TA97, Metabolic Activation: NONE, Method: STANDARD PLATE.
[2] abbreviates: Test System: AMES SALMONELLA TYPHIMURIUM, Strain/Indicator: TA98, Metabolic Activation: NONE, Method: STANDARD PLATE.
Setting [3] is: Test System: AMES SALMONELLA TYPHIMURIUM, Strain/Indicator: TA100, Metabolic Activation: NONE, Method: STANDARD PLATE.
Where [4] appears, read: Test System: AMES SALMONELLA TYPHIMURIUM, Strain/Indicator: TA1535, Metabolic Activation: NONE, Method: STANDARD PLATE.
Setting [5] is: Test System: AMES SALMONELLA TYPHIMURIUM, Strain/Indicator: TA1537, Metabolic Activation: NONE, Method: STANDARD PLATE.
Setting [6] is: Test System: AMES SALMONELLA TYPHIMURIUM, Strain/Indicator: TA1538, Metabolic Activation: NONE, Method: STANDARD PLATE.

Structures are written as SMILES. Calls of active or inactive are those of the source. How the calls were made is not given here.

In the case of `Cl`, the mutagenic call (End Point: IN VITRO CHROMOSOMAL ABERRATIONS, Test System: CHO-WBL CELLS, Metabolic Activation: NONE) is “active; positive (structural changes); osmolality of solution decisive factor”; the mutagenic call (Test System: AMES SALMONELLA TYPHIMURIUM, Strain/Indicator: TA97, Metabolic Activation: NONE, Method: PREINCUBATION) is “inactive; negative”; the mutagenic call under setting [1] is “inactive; negative”; the mutagenic call (Test System: AMES SALMONELLA TYPHIMURIUM, Strain/Indicator: TA97, Metabolic Activation: RAT, LIVER, S-9, AROCLOR 1254, Method: PREINCUBATION) was “inactive; negative”; the mutagenic call (Test System: AMES SALMONELLA TYPHIMURIUM, Strain/Indicator: TA97, Metabolic Activation: RAT, LIVER, S-9, PHENOBARBITAL, Method: STANDARD PLATE) is “inactive; negative”; the mutagenic call (Test System: AMES SALMONELLA TYPHIMURIUM, Strain/Indicator: TA98, Metabolic Activation: NONE, Method: PREINCUBATION) was “inactive; negative”. Also, the mutagenic call reads like this: under setting [2], “inactive; negative”; (Test System: AMES SALMONELLA TYPHIMURIUM, Strain/Indicator: TA98, Metabolic Activation: RAT, LIVER, S-9, KC 500, Method: PREINCUBATION) “inactive; negative”; (Test System: AMES SALMONELLA TYPHIMURIUM, Strain/Indicator: TA98, Metabolic Activation: RAT, LIVER, S-9, PHENOBARBITAL, Method: STANDARD PLATE) “inactive; negative”; (Test System: AMES SALMONELLA TYPHIMURIUM, Strain/Indicator: TA100, Metabolic Activation: NONE, Method: PREINCUBATION) “inactive; negative”; under setting [3], “inactive; negative”; (Test System: AMES SALMONELLA TYPHIMURIUM, Strain/Indicator: TA100, Metabolic Activation: RAT, LIVER, S-9, KC 500, Method: PREINCUBATION) “inactive; negative”. The mutagenic call (Test System: AMES SALMONELLA TYPHIMURIUM, Strain/Indicator: TA100, Metabolic Activation: RAT, LIVER, S-9, PHENOBARBITAL, Method: STANDARD PLATE) is “inactive; negative”; the mutagenic call (Test System: AMES SALMONELLA TYPHIMURIUM, Strain/Indicator: TA102, Metabolic Activation: NONE, Method: PREINCUBATION) was “inactive; negative”; the mutagenic call (Test System: AMES SALMONELLA TYPHIMURIUM, Strain/Indicator: TA102, Metabolic Activation: RAT, LIVER, S-9, AROCLOR 1254, Method: PREINCUBATION) is “inactive; negative”; the mutagenic call (Test System: AMES SALMONELLA TYPHIMURIUM, Strain/Indicator: TA1535, Metabolic Activation: NONE, Method: PREINCUBATION) was “inactive; negative”; the mutagenic call under setting [4] was “inactive; negative”; the mutagenic call (Test System: AMES SALMONELLA TYPHIMURIUM, Strain/Indicator: TA1535, Metabolic Activation: RAT, LIVER, S-9, KC 500, Method: PREINCUBATION) was “inactive; negative”. Besides, the mutagenic call was “inactive; negative” (Test System: AMES SALMONELLA TYPHIMURIUM, Strain/Indicator: TA1535, Metabolic Activation: RAT, LIVER, S-9, PHENOBARBITAL, Method: STANDARD PLATE); “inactive; negative” (Test System: AMES SALMONELLA TYPHIMURIUM, Strain/Indicator: TA1537, Metabolic Activation: NONE, Method: PREINCUBATION); “inactive; negative” under setting [5]; “inactive; negative” (Test System: AMES SALMONELLA TYPHIMURIUM, Strain/Indicator: TA1537, Metabolic Activation: RAT, LIVER, S-9, KC 500, Method: PREINCUBATION); “inactive; negative” (Test System: AMES SALMONELLA TYPHIMURIUM, Strain/Indicator: TA1537, Metabolic Activation: RAT, LIVER, S-9, PHENOBARBITAL, Method: STANDARD PLATE); “inactive; negative” (Test System: AMES SALMONELLA TYPHIMURIUM, Strain/Indicator: TA1538, Metabolic Activation: NONE, Method: PREINCUBATION). Also, the mutagenic call under setting [6] was “inactive; negative”; the mutagenic call (Test System: AMES SALMONELLA TYPHIMURIUM, Strain/Indicator: TA1538, Metabolic Activation: RAT, LIVER, S-9, KC 500, Method: PREINCUBATION) was “inactive; negative”; the mutagenic call (Test System: AMES SALMONELLA TYPHIMURIUM, Strain/Indicator: TA1538, Metabolic Activation: RAT, LIVER, S-9, PHENOBARBITAL, Method: STANDARD PLATE) was “inactive; negative”; the mutagenic call (Test System: E. COLI, Strain/Indicator: WP2 UVRA, Metabolic Activation: NONE, Method: PREINCUBATION) was “inactive; negative”; the mutagenic call (Test System: E. COLI, Strain/Indicator: WP2 UVRA, Metabolic Activation: NONE, Method: SPOT TEST) was “inactive; negative”; the mutagenic call (Test System: E. COLI, Strain/Indicator: WP2 UVRA, Metabolic Activation: RAT, LIVER, S-9, KC 500, Method: PREINCUBATION) is “inactive; negative”. Also, the mutagenic call is, setting by setting: (Test System: MOUSE LYMPHOMA, Strain/Indicator: L5178Y (TK+/TK-), Metabolic Activation: NONE, Method: SUSPENSION/PLATE) “inactive; negative”; (Test System: MOUSE LYMPHOMA, Strain/Indicator: L5178Y (TK+/TK-), Metabolic Activation: RAT, LIVER, S-9, AROCLOR 1254, Method: SUSPENSION/PLATE) “active; positive”; (Test System: MOUSE LYMPHOMA, Strain/Indicator: L5178Y (TK+/TK-), Metabolic Activation: RAT, LIVER, S-9, Method: SUSPENSION/PLATE) “active; positive”.
In the case of `Oc1ccc2c3ccccc3c3cc4ccccc4cc3c2c1O`, the mutagenic call (Test System: AMES SALMONELLA TYPHIMURIUM, Strain/Indicator: TA100, Metabolic Activation: RAT, LIVER, S-9, AROCLOR 1254, Method: PREINCUBATION) was “active; positive”.
Consider `C[n+]1ccn(COCCC(C)(C)[N+](=O)[O-])c1/C=N/O`, for which the mutagenic call runs as follows: under setting [1], “inactive; negative”; (Test System: AMES SALMONELLA TYPHIMURIUM, Strain/Indicator: TA97, Metabolic Activation: S-9, Method: STANDARD PLATE) “inactive; negative”; under setting [2], “inactive; negative”; (Test System: AMES SALMONELLA TYPHIMURIUM, Strain/Indicator: TA98, Metabolic Activation: S-9, Method: STANDARD PLATE) “inactive; negative”; under setting [3], “inactive; negative”; (Test System: AMES SALMONELLA TYPHIMURIUM, Strain/Indicator: TA100, Metabolic Activation: S-9, Method: STANDARD PLATE) “inactive; negative”. Moreover, the mutagenic call is, setting by setting: (Test System: AMES SALMONELLA TYPHIMURIUM, Strain/Indicator: TA104, Metabolic Activation: NONE, Method: STANDARD PLATE) “inactive; negative”; (Test System: AMES SALMONELLA TYPHIMURIUM, Strain/Indicator: TA104, Metabolic Activation: S-9, Method: STANDARD PLATE) “inactive; negative”; under setting [4], “inactive; negative”; (Test System: AMES SALMONELLA TYPHIMURIUM, Strain/Indicator: TA1535, Metabolic Activation: S-9, Method: STANDARD PLATE) “inactive; negative”; under setting [5], “inactive; negative”; (Test System: AMES SALMONELLA TYPHIMURIUM, Strain/Indicator: TA1537, Metabolic Activation: S-9, Method: STANDARD PLATE) “inactive; negative”. Moreover, the mutagenic call under setting [6] is “inactive; negative” and the mutagenic call (Test System: AMES SALMONELLA TYPHIMURIUM, Strain/Indicator: TA1538, Metabolic Activation: S-9, Method: STANDARD PLATE) was “inactive; negative”.
Take `O=C(O)c1cc(Cl)ccc1O`: the mutagenic call is “inactive; negative” under setting [6] and “inactive; negative” (Test System: AMES SALMONELLA TYPHIMURIUM, Strain/Indicator: TA1538, Metabolic Activation: RAT,LIVER, S-9, AROCLOR 1254, Method: STANDARD PLATE).
